# Measured values reported in US9353075B2, “Disubstituted beta-lactones as inhibitors of N-acylethanolamine acid amidase (NAAA)” (The Regents of the University of California, priority 2011, dated 2016).
# “Also recorded” adds a separate entry of the source.
# Tests used:
# [1] = Chemical stability in PBS buffer pH 7.4; assay type: physicochemical; conditions: phosphate-buffered saline, 0.01M PBS pH 7.4, 37° C., read-out: Stability in PBS buffer, pH 7.4 t1/2
# Protocol: Chemical stability of select compounds was evaluated under physiological pH conditions (0.01M Phosphate-Buffered Saline, pH 7.4) for up to 24 h. Stock solutions of each compound (10 mM) were prepared freshly in DMSO. Each compound was incubated at a final concentration of 10 μM (1% DMSO) in pre-heated buffer (0.01M Phosphate-Buffered Saline (PBS), pH 7.4 at 37° C.). The sample solutions were divided into aliquots in glass vials (pre-heated at 37° C.) for each time point. The samples were maintained at 37° C. in the UPLC/MS Autosampler during the study (no shaking). A reference solution of each compound (final concentration: 10 μM at 1% DMSO) in pre-heated CH3CN (37° C.) was prepared from the stock solutions (10 mM in DMSO). The reference solutions were maintained at 37° C. in the UPLC/MS Autosampler during the study (no shaking). An internal standard (100 nM) was added to the sample and reference solutions. For each time point, the samples were analyzed directly by LC/MS without any further sample preparation. The samples were analyzed (triplicate injection) by monitoring the MS trace by Multiple Reaction Monitoring (MRM). The compound concentration (expressed as %) was calculated by dividing the peak area at each time point by the peak area at t=0 min. The reference solution was analyzed at the beginning (t=0 min.), and at the end of the study (t=24 h). The apparent half-lives (t1/2) of the disappearance of compound were calculated by a one-phase decay equation using a non-linear regression of compound concentration versus time.
# The analyses were performed on a Waters ACQUITY UPLC/MS TQD system consisting of a TQD (Triple Quadropole Detector) Mass Spectrometer equipped with an Electrospray Ionization interface and a Photodiode Array Detector. The analyses were run on an ACQUITY UPLC BEH C18 1.7 μm 2.1×50 mm column with a VanGuard BEH C18 1.7 μm pre-column at 40° C. The mobile phase was 0.1% HCOOH in H2O (A) and 0.1% HCOOH in CH3CN (B) using a linear gradient: 0-0.2 min.: 5% B, 0.2-2.2 min.: 5-95% B, 2.2-2.3 min.: 95-5% B, 2.3-3 min.: 5% B with flow rate at 0.5 mL/min. […]
# [2] = test system: DNFB-induced dermatitis; experiment: DNFB contact dermatitis in mice, ear thickness; assay type: in vivo, mouse
# Protocol: 2,4-dinitrofluorobenzene (DNFB) (Sigma-Aldrich, Italy) was dissolved in acetone. On day 1 and 2, mice (CD1, 25-30 g, Charles River, Calco, Italy) were sensitized on the skin of the abdomen with hapten (20 μL of 0.5% DNFB). After 5 days, on day 7, mice were challenged with hapten (20 μL of 0.2% DNFB) in the earlobe and treated with drugs to be tested. Control group received the vehicle used to dissolve drugs. Mice (five per group) were placed in a plastic cage. On day 8, ear thickness was determined after challenge using a caliper. Results are expressed as absolute ear thickness.
# Fresh drug suspensions of compound 6 were prepared immediately before use in a vehicle consisting of petrolatum plus 5% lauric acid and given in a volume of 20 μL/mouse. Mice were treated with different concentrations of compound 6 or vehicle together with DNFB challenge on […].
# Compound 6 and the reported β-lactone NAAA inhibitor (S)-OOPP (Solorzano et al., Proceedings of the National Academy of Science USA 2009, 106, 20966-20971; Solorzano et al., Journal of Medicinal Chemistry 2010, 53, 5770-5781) were tested in this model for their contact sensitivity response. Fresh drug solutions of (S)-OOPP and compound 6 were prepared immediately before use in polyethylene glycol 400 (PEG 400) and given in a volume of 20 μL/ear. Mice were treated with different concentrations of (S)-OOPP, 0.1% compound 6 or vehicle each day for 7 days. Ear thickness was determined on day 0 and every day before challenge using a caliper. Results are expressed as absolute ear thickness.
# (§1) The methods included the following. Dermatitis was produced in mice using 2-4 dinitrofluorobenzene (DNFB) as described by Buckley and Nijkamp (1994), Am J Respir Grit Care Med 149:400-7. Mice were sensitized on two consecutive days with a 0.5% DNFB solution applied to the shaved abdomen. At day 8, the ears were challenged with a 0.2% DNFB solution. Ear thickness was determined by using a micrometer. Scratching was evaluated as number of episodes per 60 minutes period. Data were analysed by ANOVA followed by the Bonferroni's test. See also Hargreaves K, et al (1988), Pain 32: 77-88 for related information.
# [3] = test system: DNFB-induced scratching; experiment: DNFB-induced scratching in mice; assay type: in vivo, mouse; conditions: topical, single dose
# Protocol: as §1
# The methods include the following. Itching in mice was induced with DNFB as previously described. Additional studies were done with 48/80 model (an inducer of mast cell degranulation). 48/80 was given subcutaneously (30 mg per kg). Data were analysed by ANOVA followed by Bonferroni's test for multiple comparisons.
# [4] = established DNFB-induced ear edema
# [5] = repeated dosing, 8 days before DNFB challenge
compound,measurement,setting,value
"C[C@@H]1OC(=O)[C@@H]1NC(=O)OCCCCCc1ccccc1 [Example 6, 5-phenylpentyl-[(2S,3R)-2-methyl-4-oxooxetan-3-yl]-carbamate]",half-life at 10 μM,[1],1.7 h
same,"Doses of full efficacy, single dosing protocol",[2]; [4],10-30%
same,"Effective dose-range, repeated dosing protocol",[2]; [4],0.01-1%
same,"Time of administration to full efficacy, repeated dosing",[2]; [4],3 days
same,Ear swelling 24 h after DNFB challenge,"[2]; mice, 1-30% w/w suspension in petrolatum plus 5% lauric acid",dose-dependently inhibited ear swelling
same,Contact sensitivity response (ear swelling),"[2]; mice, PEG 400 solution, each day for 7 days, (S)-OOPP 0.1-10% w/v, compound 6 0.1%",significant decrease in ear swelling
same,"Established DNFB-induced ear edema (therapeutic effect), repeated dosing","[2]; mice, topical, repeated dosing",reverses ear thickness increase; also recorded: reverses established DNFB-induced ear edema
same,"Established DNFB-induced ear thickness increase, single dosing","[2]; mice, topical, single administration",reverses ear thickness increase; also recorded: efficacy is also noted
same,"Doses of complete efficacy, prophylactic protocol",[2]; [5],0.1-1%
same,Prevention of DNFB-induced ear edema (prophylactic effect),[2]; [5],prevents the development of DNFB-induced symptoms; also recorded: prevents DNFB-induced increased ear edema
same,DNFB-induced scratching,[3],prevents DNFB-induced scratching; also recorded: prevented itching
same,"Dose of full effect, DNFB-induced scratching",[3],1-3%
same,"Lowest effective dose, DNFB-induced scratching",[3],0.001%
